# Laboratory results reported in US8445441B2, “Inhibitors of BCL-2” (Case Western Reserve University, priority 2007, dated 2013).
# Columns and labels:
# [1] = test system: IP3R type 1 channel; experiment: single IP3R channel activity in planar lipid bilayers; type: biochemical; settings: 2 μM IP3, 250 nM Ca2+
# Description: FIG. 5 illustrates a summary of multiple experiments (mean±SEM) measuring effects of Bcl-2 and peptides on IP3R channel open probability. n=number of individual channels examined. Symbols represent mean±SEM. *p<0.05.
# The effects of peptide 2 and purified Bcl-2 on IP3R channel activity were analyzed in planar lipid bilayers under steady-state conditions. Single IP3R type 1 channel activity was visualized as a series of discrete positive current fluctuations in the presence of 2 μM IP3 and 250 nM Ca^2+ in the cis compartment (cytoplasmic side of channel). A significant reduction in single channel activity was observed after adding 0.1 μM purified Bcl-2 to the cytoplasmic face of the IP3R channel, and addition of 10 μM peptide 2 reversed Bcl-2's inhibitory effect on channel activity. Average open probabilities under various conditions were calculated from multiple repeated experiments (FIG. 5). Addition of Bcl-2 reduced IP3R open probability by 11.5-fold to 0.018.
# [2] = test system: Jurkat cells; experiment: IP3 ester-induced Ca2+ elevation; type: cell-based; settings: D-myo InsP3 hexakisbutyryloxymethyl ester
# Excerpt: To exclude the possibility that peptide 2 may interfere with the upstream TCR activation pathway, a cell-permeant IP3 ester (D-myo InsP3 hexakisbutyryloxymethyl ester) was used to bypass TCR activation and anti-CD3-induced IP3 generation.
# [3] = test system: murine embryonic fibroblasts (MEFs); experiment: unidirectional 45Ca2+ flux, IP3-induced efflux; type: cell-based; settings: in the presence of thapsigargin
# Excerpt: The conclusion that peptide 2 acts directly on the Bcl-2-IP3R interaction is supported not only by experiments described above (FIG. 5) in which peptide 2 reversed Bcl-2-mediated inhibition of IP3R channel opening in vitro, but also by unidirectional ^45Ca^2+ flux experiments that allow for very accurate quantification of Ca^2+ release through IP3Rs located on the ER. These experiments require firmly adherent cells, and therefore murine embryonic fibroblasts (MEFs), which have a somewhat lower level of endogenous Bcl-2 than Jurkat cells, were employed. The rate of IP3-induced ^45Ca^2+ efflux was measured in the presence of thapsigargin, which completely prevents ER Ca^2+ reuptake.
# [4] = test system: Jurkat cells; experiment: anti-CD3-induced apoptosis (apoptotic nuclei); type: cell-based
# Description: FIG. 7 illustrates peptide 2 Enhances Anti-CD3-Induced Apoptosis in Bcl-2-Positive Cells (A) Typical apoptotic nuclear morphology (arrow, Hoechst 33342 stain) 24 hr after 5 μg/ml anti-CD3 treatment of Jurkat cells. Scale bars, 10 μm. (B) Bcl-2(−) and Bcl-2(+) WEHI7.2 cells were pre-incubated±60 μM peptides plus Chariot reagent and then incubated with 20 μg/ml anti-CD3 for 24 hr. Symbols represent the percentage of cells (mean±SEM) with apoptotic nuclei in three experiments for Bcl-2(−) and five experiments for Bcl-2(+) cells (200 cells counted per coverslip). (C) Jurkat cells were pre-incubated±60 μM peptides±Chariot reagent and then incubated with 5 μg/ml anti-CD3 for 24 hr. Symbols represent the percentage of cells (mean±SEM) with apoptotic nuclei in five experiments (240 cells counted per coverslip).
# Peptide 2 also attenuated Bcl-2's inhibition of anti-CD3-induced apoptosis in Jurkat cells. In preliminary studies (data not shown), we tested several anti-CD3 concentrations. Higher concentrations of anti-CD3 induced high levels of apoptosis that might obscure the effect of the peptide. We therefore used 5 μg/ml anti-CD3, sufficient to induce 20%-30% apoptosis.
# [5] = test system: Jurkat cells; experiment: Fas-induced Ca2+-independent apoptosis; type: cell-based
# [6] = test system: primary chronic lymphocytic leukemia cells; experiment: cell killing by trypan blue dye exclusion, combination with ABT737; type: cell-based; settings: primary CLL cells, peptide combined with ABT737, 24 hours
# Excerpt: FIG. 10 illustrates a graph comparing the cell death percentage of chronic lymphocytic leukemia cells treated with combinations of ABT-737 and a peptide comprising SEQ ID NO: 3 and controls.
# FIG. 11 illustrates a graph comparing the cell death percentage of chronic lymphocytic leukemia cells treated with ABT-737, a peptide comprising SEQ ID NO: 3, combinations thereof, and controls.
# To test this hypothesis, we performed the experiments summarized below. […] Additions were made to CLL cells and cell death measured 24 hours later.
# [7] = molecular target: Bcl-2-IP3R interaction (Homo sapiens, UniProt P10415); experiment: coimmunoprecipitation of Bcl-2 with IP3R from cell extracts; type: binding; design: expressed in transfected cells; host or cells: Bcl-2(+) WEHI7.2 cells; also Jurkat cells (endogenous Bcl-2); settings: 400 μM peptide; Bcl-2(+) WEHI7.2 and Jurkat cell extracts
# Description: FIG. 4 illustrates an IP3R Peptide Inhibits Bcl-2-IP3R Interaction but Not Bim-Bcl-2 Interaction. (A and D) IP3R was immunoprecipitated from extracts of Bcl-2(+) WEHI7.2 cells (C) or Jurkat cells in the presence of 400 μM peptides. Peptide 2, but not peptide 1 or control peptide, inhibited the Bcl-2-IP3R coimmunoprecipitation. Summary of Bcl-2 immunoblot signal intensities in three […] experiments identical to (C) (mean±SEM). (B) Bcl-2 was immunoprecipitated from Bcl-2(+) WEHI7.2 cell extracts in the presence of 400 μM peptides, and coimmunoprecipitation of Bim was detected by anti-Bim immunoblotting. […] (E) Summary of Bim immunoblot signal intensities in three experiments identical to (B) (mean±SEM).
# Since the IP3R binding region was narrowed down to the 80 amino acid subdomain 3a1 (aa 1347-1426), we designed two 20 amino acid peptides (peptide 1, aa 1365-1384 (SEQ ID NO:2); peptide 2, aa 1389-1408 (SEQ ID NO:3)) based on the degree of homology in this region among different IP3R isoforms. […] The inhibitory effect of peptide 2 on Bcl-2-IP3R interaction was also detected in coimmunoprecipitation assays employing both Bcl-2(+) WEHI7.2 cells (FIGS. 4A and 4B) and Jurkat cells (FIG. 4C). […]
# Chain of Bcl-2-IP3R interaction (P10415 whole entry): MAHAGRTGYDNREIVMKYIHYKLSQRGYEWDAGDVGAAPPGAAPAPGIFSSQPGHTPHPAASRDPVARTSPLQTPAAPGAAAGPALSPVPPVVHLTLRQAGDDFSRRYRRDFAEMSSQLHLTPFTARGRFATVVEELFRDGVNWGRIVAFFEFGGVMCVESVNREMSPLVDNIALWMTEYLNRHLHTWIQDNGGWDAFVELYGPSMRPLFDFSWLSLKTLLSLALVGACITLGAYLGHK
sequence,measurement,setting,value
"NVYTEIKCNSLLPLDDIVRV (listed as Homo sapiens) [peptide 2, 20 amino acid peptide, aa 1389-1408 of IP3R subdomain 3a1]",IP3R open probability,"[1]; 10 μM peptide after 0.1 μM purified Bcl-2, Bcl-2 alone 0.018",0.16
same,reversal of Bcl-2's inhibitory effect on channel activity,[1]; after 0.1 μM purified Bcl-2,reversed
same,IP3 ester-induced Ca2+ elevation,[2],enhanced
same,rate of IP3-induced 45Ca2+ efflux,[3],significantly increased
same,anti-CD3-induced apoptosis (percentage of apoptotic cells),"[4]; 60 μM peptide with Chariot, 5 μg/ml anti-CD3, 24 hr, anti-CD3 alone 20%-30%",40%-45%
same,effect on anti-CD3-induced apoptosis,[4]; peptide in the absence of Chariot reagent,did not have an effect
same,enhancement of Fas-induced Ca2+-independent apoptosis,[5],did not enhance
same,cell death induction by ABT737,[6],enhances cell death induction
same,inhibition of Bcl-2-IP3R coimmunoprecipitation,[7],consistently inhibited
